Data published in patent publication US20130012483A1, “NOVEL PHARMACEUTICAL COMPOSITION FOR THE TREATMENT OF NEURODEGENERATIVE OR NEUROVASCULAR DISEASES” (priority 2010, published 2013).

System: elderly patients suffering from Alzheimer disease or related disorders (ADRD)
Assay: Before-after clinical study: change in global cognitive performance by Mini-Mental State Examination (MMSE)
Format: in vivo, human
Conditions: for Change in MMSE score, mean ± SD (MMSE score after treatment − MMSE score before treatment): between-visits change, oral treatment; for MMSE score (/30 points), mean ± SD after treatment: first follow-up visit, oral vitamin D3 800-3500 IU per day and/or memantine 5-20 mg per day, mean time between visits 0.6±0.4 years
Description: Based on a before-after designed study, we compared the change in global cognitive performance using the Mini-Mental State Examination (MMSE) among elderly patients suffering from Alzheimer disease or related disorders (ADRD).
Three different treatments were administered to these patients: • vitamin D3 alone, • memantine alone, • vitamin D3 in combination with memantine.
All patients suffering from ADRD who were prescribed memantine and/or vitamin D3 with no cerebral vasodilatators and no anticholinesterasics (i.e., donepezil, galantamine or rivastigmine) at the University Memory Center of Angers University Hospital, France and who had at least one follow-up visit, were enrolled in this study.
The MMSE score was used to assess global cognitive performance during the study and was completed at baseline (i.e., before the drug prescription) and during the first follow-up visit. MMSE is a well-established measure of cognitive function in elderly people (see for example Folstein M F, Folstein S E, et al., Mini-Mental State: A practical method for grading the cognitive state of patients for the clinician; Journal of Psychiatric Research 1975; 12: 189-198; or Kalafat L, Hugonot-Diener L, Poitrenaud J., Standardisation et étalonnage français du<<Mini Mental State>>version Greco; Neuropsychol Rev 2003; 13: 209-236). It is a brief, practical screening test for cognitive dysfunction composed of five sections (orientation, registration, attention—calculation, recall, and language). […] Scores range from 30 (unimpaired) to 0 (impaired). The change in MMSE score was used to assess the change in cognitive performance after the introduction of the drug(s).
Subjects were prescribed either vitamin D3 alone, memantine alone, or Vitamin D3 in combination with memantine.
Vitamin D3 was administered orally either daily or monthly. Dosage of vitamin D3 ranges between 800 and 3500 IU per day.
Memantine was administered orally every day at once. Dosage ranges from 5 to 20 mg per day.
Age, gender, the MMSE score at baseline assessment as well as the time between two visits expressed in years (corresponding to the duration of treatment) were used as co-variables.
The subjects' baseline characteristics were summarized using means and standard deviations or frequencies and percentages, as appropriate. First, comparisons between subjects separated into three groups corresponding to the three treatments administered (i.e., vitamin D3 alone, memantine alone and Vitamin D3 in combination with memantine) were performed using the Chi-square test or the Kruskal-Wallis test, as appropriate. To address the problem of multiple comparisons, analyses were completed by a post hoc Bonferonni test.
Second, multiple linear regression analyses (i.e., fully adjusted method) were performed to examine the association between the change in MMSE score (dependent variable) and the use of vitamin D3 in combination with memantine (independent variable), after adjustment for clinical characteristics.
Three models were performed: • first, we examined the between-visits change in MMSE score taking as reference group the subjects using vitamin D3 alone; • second, we performed the same analysis taking as reference group the subjects using memantine alone; and • third, taking as reference group the subjects using vitamin D3 or memantine.

| SMILES | Change in MMSE score, mean ± SD (MMSE score after treatment − MMSE score before treatment) [points] | Change in MMSE score, mean ± SD (MMSE score after treatment − MMSE score before treatment) (listed as memantine) [points] | MMSE score (/30 points), mean ± SD after treatment [points] | points lost in MMSE score on average (between visits, printed as a loss) [points] |
| --- | --- | --- | --- | --- |
| CC12CC3CC(C)(C1)CC(N)(C3)C2 [M., 3,5-dimethyltricyclo[3.3.1.1]decylamine] | −0.0 ± 1.8 | 0.0±1.8 | 16.1 ± 5.1 |  |
| C=C1CC[C@H](O)C/C1=C/C=C1\CCC[C@]2(C)[C@@H]([C@H](C)CCCC(C)C)CC[C@@H]12 [V. D3, cholecalciferol] | −0.6 ± 3.1 |  | 17.7 ± 6.5 | 0.6±3.1 |
